Source: ChEMBL document CHEMBL4622996, “Discovery of Vixotrigine: A Novel Use-Dependent Sodium Channel Blocker for the Treatment of Trigeminal Neuralgia” (ACS Med Chem Lett, 2020)

Test: Tmax in monkey at 3 mg/kg, po
Assay type: ADME, organism-based, Macaca mulatta
Conditions: rhesus monkey, in vivo

Tmax: 2 h
SMILES: Cl.NC(=O)[C@@H]1CC[C@H](c2ccc(OCc3ccccc3F)cc2)N1 [RAXATRIGINE HYDROCHLORIDE]
